Test results as given in ChEMBL document CHEMBL3600353, “In Vitro Activity of Epigallocatechin Gallate and Quercetin Alone and in Combination versus Clinical Isolates of Methicillin-Resistant Staphylococcus aureus” (2015).
Active and inactive are the calls of the source. No cut-off for these calls is given here.

What was measured:
Staphylococcus aureus [1] = assay: Antibacterial activity against methicillin-resistant Staphylococcus aureus isolate 5 by disk diffusion assay; assay type: functional
Staphylococcus aureus [2] = assay: Antibacterial activity against methicillin-resistant Staphylococcus aureus isolate 2 assessed as reduction of epigallocatechin gallate MIC after 24 hrs by checkerboard assay in presence of quercetin; assay type: functional; conditions: isolate 2, 24 h
Staphylococcus aureus [3] = assay: Antibacterial activity against methicillin-resistant Staphylococcus aureus isolate 4 assessed as reduction of epigallocatechin gallate MIC after 24 hrs by checkerboard assay in presence of quercetin; assay type: functional; conditions: isolate 4, 24 h
Staphylococcus aureus [4] = assay: Antibacterial activity against vancomycin-intermediate resistant Staphylococcus aureus Mu50 at 0.56 mM after 24 hrs by time kill assay; assay type: functional, organism-based
Staphylococcus aureus [5] = assay: Antibacterial activity against vancomycin-intermediate resistant Staphylococcus aureus Mu50 after 24 hrs by time kill assay; assay type: functional, organism-based
Staphylococcus aureus [6] = assay: Antibacterial activity against methicillin-resistant Staphylococcus aureus isolate 8 after 24 hrs by checkerboard assay; assay type: functional; conditions: isolate 8, 24 h
Staphylococcus aureus [7] = assay: Antibacterial activity against methicillin-resistant Staphylococcus aureus isolate 1 after 24 hrs by checkerboard assay; assay type: functional; conditions: isolate 1, 24 h
Staphylococcus aureus [8] = assay: Antibacterial activity against methicillin-sensitive Staphylococcus aureus ATCC 25923 at 0.56 mM after 4 hrs by time kill assay; assay type: functional, organism-based
Staphylococcus aureus [9] = assay: Antibacterial activity against methicillin-resistant Staphylococcus aureus isolate 4 by disk diffusion assay; assay type: functional
Staphylococcus aureus [10] = assay: Antibacterial activity against methicillin-resistant Staphylococcus aureus isolate 4 after 24 hrs by checkerboard assay; assay type: functional; conditions: isolate 4, 24 h
Staphylococcus aureus [11] = assay: Antibacterial activity against methicillin-resistant Staphylococcus aureus isolate 2 after 24 hrs by checkerboard assay in presence of quercetin; assay type: functional
Staphylococcus aureus [12] = assay: Antibacterial activity against methicillin-resistant Staphylococcus aureus isolate 3 after 24 hrs by checkerboard assay in presence of quercetin; assay type: functional
Staphylococcus aureus [13] = assay: Antibacterial activity against methicillin-resistant Staphylococcus aureus isolate 6 assessed as reduction of epigallocatechin gallate MIC after 24 hrs by checkerboard assay in presence of quercetin; assay type: functional; conditions: isolate 6, 24 h
Staphylococcus aureus [14] = assay: Antibacterial activity against methicillin-resistant Staphylococcus aureus isolate 5 after 24 hrs by checkerboard assay in presence of quercetin; assay type: functional
Staphylococcus aureus [15] = assay: Antibacterial activity against Staphylococcus aureus ATCC 25923 assessed as reduction of epigallocatechin gallate MIC after 24 hrs by checkerboard assay in presence of quercetin; assay type: functional; conditions: ATCC 25923, 24 h
Staphylococcus aureus [16] = assay: Antibacterial activity against vancomycin-intermediate resistant Staphylococcus aureus Mu50 at 0.56 mM after 4 hrs by time kill assay; assay type: functional, organism-based
Staphylococcus aureus [17] = assay: Antibacterial activity against vancomycin-intermediate resistant Staphylococcus aureus Mu50 after 24 hrs by checkerboard assay; assay type: functional; conditions: Mu50, 24 h
Staphylococcus aureus [18] = assay: Antibacterial activity against methicillin-resistant Staphylococcus aureus isolate 3 assessed as reduction of epigallocatechin gallate MIC after 24 hrs by checkerboard assay in presence of quercetin; assay type: functional; conditions: isolate 3, 24 h
Staphylococcus aureus [19] = assay: Antibacterial activity against methicillin-resistant Staphylococcus aureus isolate 8 assessed as reduction of epigallocatechin gallate MIC after 24 hrs by checkerboard assay in presence of quercetin; assay type: functional; conditions: isolate 8, 24 h
Staphylococcus aureus [20] = assay: Antibacterial activity against methicillin-sensitive Staphylococcus aureus ATCC 25923 at 0.28 mM after 24 hrs by time kill assay in presence of 0.2 mM of quercetin; assay type: functional, organism-based
Staphylococcus aureus [21] = assay: Antibacterial activity against methicillin-resistant Staphylococcus aureus isolate 7 after 24 hrs by checkerboard assay in presence of quercetin; assay type: functional
Staphylococcus aureus [22] = assay: Antibacterial activity against methicillin-sensitive Staphylococcus aureus ATCC 25923 at 0.56 mM after 24 hrs by time kill assay in presence of 0.42 mM of quercetin; assay type: functional, organism-based
Staphylococcus aureus [23] = assay: Antibacterial activity against methicillin-resistant Staphylococcus aureus isolate 6 after 24 hrs by checkerboard assay in presence of quercetin; assay type: functional
Staphylococcus aureus [24] = assay: Antibacterial activity against methicillin-resistant Staphylococcus aureus NCTC 12493 assessed as log reduction of colony forming unit at 0.28 mM after 2 hrs; assay type: functional, organism-based
Staphylococcus aureus [25] = assay: Antibacterial activity against methicillin-resistant Staphylococcus aureus NCTC 12493 assessed as log reduction of colony forming unit at 0.28 mM after 24 hrs; assay type: functional, organism-based
Staphylococcus aureus [26] = assay: Antibacterial activity against methicillin-resistant Staphylococcus aureus isolate 5 after 24 hrs by checkerboard assay; assay type: functional; conditions: isolate 5, 24 h
Staphylococcus aureus [27] = assay: Antibacterial activity against methicillin-resistant Staphylococcus aureus isolate 1 after 24 hrs by checkerboard assay in presence of quercetin; assay type: functional
Staphylococcus aureus [28] = assay: Antibacterial activity against Staphylococcus aureus ATCC 25923 after 24 hrs by checkerboard assay in presence of quercetin; assay type: functional
Staphylococcus aureus [29] = assay: Antibacterial activity against vancomycin-intermediate resistant Staphylococcus aureus Mu50 after 24 hrs by checkerboard assay in presence of quercetin; assay type: functional
Staphylococcus aureus [30] = assay: Antibacterial activity against methicillin-resistant Staphylococcus aureus isolate 9 after 24 hrs by checkerboard assay; assay type: functional; conditions: isolate 9, 24 h
Staphylococcus aureus [31] = assay: Antibacterial activity against methicillin-resistant Staphylococcus aureus isolate 3 by disk diffusion assay; assay type: functional
Staphylococcus aureus [32] = assay: Antibacterial activity against methicillin-resistant Staphylococcus aureus isolate 2 by disk diffusion assay; assay type: functional
Staphylococcus aureus [33] = assay: Antibacterial activity against vancomycin-intermediate resistant Staphylococcus aureus Mu50 assessed as log reduction of colony forming unit at 0.28 mM after 24 hrs; assay type: functional, organism-based
Staphylococcus aureus [34] = assay: Antibacterial activity against methicillin-resistant Staphylococcus aureus isolate 3 after 24 hrs by checkerboard assay; assay type: functional; conditions: isolate 3, 24 h
Staphylococcus aureus [35] = assay: Antibacterial activity against methicillin-resistant Staphylococcus aureus isolate 6 after 24 hrs by checkerboard assay; assay type: functional; conditions: isolate 6, 24 h
Staphylococcus aureus [36] = assay: Antibacterial activity against methicillin-resistant Staphylococcus aureus isolate 7 after 24 hrs by checkerboard assay; assay type: functional; conditions: isolate 7, 24 h
Staphylococcus aureus [37] = assay: Antibacterial activity against methicillin-resistant Staphylococcus aureus isolate 7 assessed as reduction of epigallocatechin gallate MIC after 24 hrs by checkerboard assay in presence of quercetin; assay type: functional; conditions: isolate 7, 24 h
Staphylococcus aureus [38] = assay: Antibacterial activity against Staphylococcus aureus ATCC 25923 after 24 hrs by checkerboard assay; assay type: functional; conditions: ATCC 25923, 24 h
Staphylococcus aureus [39] = assay: Antibacterial activity against methicillin-resistant Staphylococcus aureus NCTC 12493 after 24 hrs by checkerboard assay in presence of quercetin; assay type: functional
Staphylococcus aureus [40] = assay: Antibacterial activity against methicillin-resistant Staphylococcus aureus isolate 1 by disk diffusion assay; assay type: functional
Staphylococcus aureus [41] = assay: Antibacterial activity against methicillin-resistant Staphylococcus aureus isolate 7 by disk diffusion assay; assay type: functional
Staphylococcus aureus [42] = assay: Antibacterial activity against methicillin-resistant Staphylococcus aureus NCTC 12493 at 0.28 mM after 4 hrs by time kill assay; assay type: functional, organism-based
Staphylococcus aureus [43] = assay: Antibacterial activity against methicillin-resistant Staphylococcus aureus isolate 1 assessed as reduction of epigallocatechin gallate MIC after 24 hrs by checkerboard assay in presence of quercetin; assay type: functional; conditions: isolate 1, 24 h
Staphylococcus aureus [44] = assay: Antibacterial activity against methicillin-sensitive Staphylococcus aureus ATCC 25923 after 24 hrs by time kill assay; assay type: functional, organism-based
Staphylococcus aureus [45] = assay: Antibacterial activity against methicillin-sensitive Staphylococcus aureus ATCC 25923 at 0.56 mM after 24 hrs by time kill assay; assay type: functional, organism-based
Staphylococcus aureus [46] = assay: Antibacterial activity against methicillin-resistant Staphylococcus aureus isolate 9 by disk diffusion assay; assay type: functional
Staphylococcus aureus [47] = assay: Antibacterial activity against vancomycin-intermediate resistant Staphylococcus aureus Mu50 assessed as reduction of epigallocatechin gallate MIC after 24 hrs by checkerboard assay in presence of quercetin; assay type: functional; conditions: Mu50, 24 h
Staphylococcus aureus [48] = assay: Antibacterial activity against methicillin-resistant Staphylococcus aureus isolate 6 by disk diffusion assay; assay type: functional
Staphylococcus aureus [49] = assay: Antibacterial activity against methicillin-resistant Staphylococcus aureus NCTC 12493 after 24 hrs by time kill assay; assay type: functional, organism-based
Staphylococcus aureus [50] = assay: Antibacterial activity against methicillin-sensitive Staphylococcus aureus ATCC 25923 at 0.28 mM after 24 hrs by time kill assay in presence of 0.42 mM of quercetin; assay type: functional, organism-based
Staphylococcus aureus [51] = assay: Antibacterial activity against methicillin-resistant Staphylococcus aureus NCTC 12493 at 0.28 mM after 24 hrs by time kill assay; assay type: functional, organism-based
Staphylococcus aureus [52] = assay: Antibacterial activity against methicillin-resistant Staphylococcus aureus NCTC 12493 assessed as reduction of epigallocatechin gallate MIC after 24 hrs by checkerboard assay in presence of quercetin; assay type: functional; conditions: NCTC 12493, 24 h
Staphylococcus aureus [53] = assay: Antibacterial activity against methicillin-resistant Staphylococcus aureus NCTC 12493 assessed as log reduction of colony forming unit at 0.28 mM after 4 hrs; assay type: functional, organism-based
Staphylococcus aureus [54] = assay: Antibacterial activity against methicillin-resistant Staphylococcus aureus isolate 9 after 24 hrs by checkerboard assay in presence of quercetin; assay type: functional
Staphylococcus aureus [55] = assay: Antibacterial activity against methicillin-resistant Staphylococcus aureus isolate 5 assessed as reduction of epigallocatechin gallate MIC after 24 hrs by checkerboard assay in presence of quercetin; assay type: functional; conditions: isolate 5, 24 h
Staphylococcus aureus [56] = assay: Antibacterial activity against methicillin-resistant Staphylococcus aureus isolate 4 after 24 hrs by checkerboard assay in presence of quercetin; assay type: functional
Staphylococcus aureus [57] = assay: Antibacterial activity against methicillin-resistant Staphylococcus aureus NCTC 12493 after 24 hrs by checkerboard assay; assay type: functional; conditions: NCTC 12493, 24 h
Staphylococcus aureus [58] = assay: Antibacterial activity against methicillin-resistant Staphylococcus aureus isolate 9 assessed as reduction of epigallocatechin gallate MIC after 24 hrs by checkerboard assay in presence of quercetin; assay type: functional; conditions: isolate 9, 24 h
Staphylococcus aureus [59] = assay: Antibacterial activity against methicillin-resistant Staphylococcus aureus isolate 2 after 24 hrs by checkerboard assay; assay type: functional; conditions: isolate 2, 24 h
Staphylococcus aureus [60] = assay: Antibacterial activity against methicillin-resistant Staphylococcus aureus isolate 8 by disk diffusion assay; assay type: functional
Staphylococcus aureus [61] = assay: Antibacterial activity against methicillin-sensitive Staphylococcus aureus ATCC 25923 at 0.56 mM after 24 hrs by time kill assay in presence of 0.85 mM of quercetin; assay type: functional, organism-based
Staphylococcus aureus [62] = assay: Antibacterial activity against methicillin-resistant Staphylococcus aureus isolate 8 after 24 hrs by checkerboard assay in presence of quercetin; assay type: functional

**Q.** What does the source list for `O=C(O[C@@H]1Cc2c(O)cc(O)cc2O[C@@H]1c1cc(O)c(O)c(O)c1)c1cc(O)c(O)c(O)c1` [EPIGALOCATECHIN GALLATE]?
**A.** inhibition zone (IZ) (Staphylococcus aureus [1]): >=19 mm; MIC (Staphylococcus aureus [2]): 40 µM; MIC (Staphylococcus aureus [3]): 70 µM; Activity (Staphylococcus aureus [4]): Active; Activity (Staphylococcus aureus [5]): Active; MIC (Staphylococcus aureus [6]): 280 µM; MIC (Staphylococcus aureus [7]): 280 µM; Activity (Staphylococcus aureus [8]): Active; inhibition zone (IZ) (Staphylococcus aureus [9]): >=19 mm; MIC (Staphylococcus aureus [10]): 280 µM; fractional inhibitory concentration index (FICI) (Staphylococcus aureus [11]): 0.2; fractional inhibitory concentration index (FICI) (Staphylococcus aureus [12]): 0.31; MIC (Staphylococcus aureus [13]): 70 µM; fractional inhibitory concentration index (FICI) (Staphylococcus aureus [14]): 0.28; MIC (Staphylococcus aureus [15]): 20 µM; Activity (Staphylococcus aureus [16]): Active; MIC (Staphylococcus aureus [17]): 280 µM; MIC (Staphylococcus aureus [18]): 70 µM; MIC (Staphylococcus aureus [19]): 70 µM; Activity (Staphylococcus aureus [20]): Active; fractional inhibitory concentration index (FICI) (Staphylococcus aureus [21]): 0.31; Activity (Staphylococcus aureus [22]): Active; fractional inhibitory concentration index (FICI) (Staphylococcus aureus [23]): 0.31; Activity (Staphylococcus aureus [24]): Active; Activity (Staphylococcus aureus [25]): Active; MIC (Staphylococcus aureus [26]): 280 µM; fractional inhibitory concentration index (FICI) (Staphylococcus aureus [27]): 0.31; fractional inhibitory concentration index (FICI) (Staphylococcus aureus [28]): 0.07; fractional inhibitory concentration index (FICI) (Staphylococcus aureus [29]): 0.09; MIC (Staphylococcus aureus [30]): 280 µM; inhibition zone (IZ) (Staphylococcus aureus [31]): >=19 mm; inhibition zone (IZ) (Staphylococcus aureus [32]): >=19 mm; Activity (Staphylococcus aureus [33]): Active; MIC (Staphylococcus aureus [34]): 280 µM; MIC (Staphylococcus aureus [35]): 280 µM; MIC (Staphylococcus aureus [36]): 280 µM; MIC (Staphylococcus aureus [37]): 70 µM; MIC (Staphylococcus aureus [38]): 560 µM; fractional inhibitory concentration index (FICI) (Staphylococcus aureus [39]): 0.06; inhibition zone (IZ) (Staphylococcus aureus [40]): 8 mm; inhibition zone (IZ) (Staphylococcus aureus [41]): >=19 mm; Activity (Staphylococcus aureus [42]): Active; MIC (Staphylococcus aureus [43]): 70 µM; Activity (Staphylococcus aureus [44]): Active; Activity (Staphylococcus aureus [45]): Active; inhibition zone (IZ) (Staphylococcus aureus [46]): >=19 mm; MIC (Staphylococcus aureus [47]): 20 µM; inhibition zone (IZ) (Staphylococcus aureus [48]): >=19 mm; Activity (Staphylococcus aureus [49]): Active; Activity (Staphylococcus aureus [50]): Active; Activity (Staphylococcus aureus [51]): Active; MIC (Staphylococcus aureus [52]): 4 µM; Activity (Staphylococcus aureus [53]): Active; fractional inhibitory concentration index (FICI) (Staphylococcus aureus [54]): 0.28; MIC (Staphylococcus aureus [55]): 70 µM; fractional inhibitory concentration index (FICI) (Staphylococcus aureus [56]): 0.28; MIC (Staphylococcus aureus [57]): 140 µM; MIC (Staphylococcus aureus [58]): 70 µM; MIC (Staphylococcus aureus [59]): 280 µM; inhibition zone (IZ) (Staphylococcus aureus [60]): >=19 mm; Activity (Staphylococcus aureus [61]): Active; fractional inhibitory concentration index (FICI) (Staphylococcus aureus [62]): 0.31
